Here are results for three molecules from paper PMC3906059, “Activation and Inhibition of TMEM16A Calcium-Activated Chloride Channels” (PLoS ONE, 2014).

Entries after “also recorded” stand apart in the source; their conditions may differ. Where two headings read alike, the source gives them in different places.

The target in test [1] is T1, TMEM16A (ANO1) (Mus musculus, UniProt Q8BHY3).
T1 construct: We subcloned the coding region of the cDNA into pEGFP-N3 vector; expressed in transfected cells; host or cells: HEK293 cells
T1 sequence (Q8BHY3 1-956 isoform Q8BHY3-2): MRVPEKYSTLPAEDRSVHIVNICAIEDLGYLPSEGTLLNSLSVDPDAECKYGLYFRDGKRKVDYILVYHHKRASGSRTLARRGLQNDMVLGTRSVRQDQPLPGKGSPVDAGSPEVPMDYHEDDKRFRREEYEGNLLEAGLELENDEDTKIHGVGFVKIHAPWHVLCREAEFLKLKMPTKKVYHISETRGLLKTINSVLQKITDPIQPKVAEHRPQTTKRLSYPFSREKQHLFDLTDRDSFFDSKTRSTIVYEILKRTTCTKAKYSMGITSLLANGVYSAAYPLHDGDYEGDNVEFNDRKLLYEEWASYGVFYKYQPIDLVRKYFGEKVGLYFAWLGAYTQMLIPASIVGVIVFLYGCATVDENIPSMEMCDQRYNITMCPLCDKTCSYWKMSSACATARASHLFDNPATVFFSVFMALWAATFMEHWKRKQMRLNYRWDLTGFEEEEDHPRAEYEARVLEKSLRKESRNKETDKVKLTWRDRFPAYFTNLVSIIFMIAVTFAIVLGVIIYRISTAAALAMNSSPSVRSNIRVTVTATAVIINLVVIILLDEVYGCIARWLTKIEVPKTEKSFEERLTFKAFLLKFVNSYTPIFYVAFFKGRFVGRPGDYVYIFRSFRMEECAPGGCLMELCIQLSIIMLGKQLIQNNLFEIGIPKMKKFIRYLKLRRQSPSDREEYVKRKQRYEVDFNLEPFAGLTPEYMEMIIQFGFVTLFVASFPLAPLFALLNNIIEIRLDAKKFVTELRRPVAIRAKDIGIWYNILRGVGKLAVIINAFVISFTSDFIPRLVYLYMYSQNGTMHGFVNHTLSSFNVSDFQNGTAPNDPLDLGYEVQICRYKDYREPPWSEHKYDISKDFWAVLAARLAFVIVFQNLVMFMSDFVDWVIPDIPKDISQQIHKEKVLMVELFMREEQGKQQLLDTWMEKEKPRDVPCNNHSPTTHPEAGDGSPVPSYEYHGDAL
Nature of the test: Mg^2+ inhibition of Ca^2+-induced ANO1 current and shift of the Ca^2+-activation curve (Schild plot). It is filed as cell-based. The text has this: (§1) The mouse TMEM16A cDNA (NCBI reference sequence: NM_001242349.1) encoding ANO1 CaCC was a generous gift from Dr. Lily Jan. We subcloned the coding region of the cDNA into pEGFP-N3 vector (Clontech Laboratories, Inc.), resulting in a construct in which an enhanced green fluorescent protein (eGFP) was attached to the C-terminus of the ANO1 protein. The sequence was confirmed by commercially-available DNA sequencing service. This eGFP-attached ANO1 cDNA construct was used for channel expression throughout the study. The cDNA was transfected into human embryonic kidney (HEK) 293 cells using lipofectamine transfection methods, [42], [43]. A fluorescent light source and a GFP filter set (Chroma Technology Co.) in the DM IRB inverted microscope (Leica Microsystems) were used to identify transfected cells expressing channel proteins. Electrophysiological experiments were performed ∼24 to 72 hours after transfection.
All chemicals were reagent grade. Regular salts (such as NaCl, NaOH, CaCl2, SrCl2, BaCl2, MgCl2 or sodium salts of various anions) were purchased from Fisher Chemicals (Fair Lawn, NJ), J. T. Baker (Phillipsburg, NJ) or Sigma Chemicals Co. (St. Louis, MO). EGTA, HEPES, and NFA were from Sigma Chemicals Co. Excised inside-out patch-clamp recordings were performed throughout the study. The extracellular (pipette) solution in all experiments contained: 140 mM NaCl, 10 mM HEPES, 0.1 mM EGTA, pH = 7.4. The regular intracellular solution contained 10 mM HEPES and 140 mM sodium salt of Cl^− or other anions. Various concentrations of divalent cations were made by adding certain total concentrations of divalent cations (Cl^− salts) into the solution containing a defined concentration of EGTA. We defined the pipette solution as the “zero-Ca^2+” solution. A solution containing a saturating [Ca^2+] was made by adding 0.12 mM total [Ca^2+] into the aforementioned zero-Ca^2+ solution, resulting in a solution containing ∼20 µM free [Ca^2+]. For making non-saturating [Ca^2+] solutions, the solutions included 1 mM EGTA. […]
Because of weak Mg^2+-EGTA binding, we referred the total [Mg^2+] as the free [Mg^2+]. The free [Ca^2+], [Sr^2+], and [Ba^2+] were calculated using the MaxChelator program (Ver1.2) kindly provided by Chris Patton from the Stanford University. […] Table S1, Table S2, and Table S3 list respectively the calculated free [Ca^2+], [Sr^2+], and [Ba^2+] used in this study. […]
Solution exchange was achieved using the SF-77 solution exchanger (Warner Instruments). […] The recorded current is normally time-independent following fast solution exchange, but on infrequent occasions there is a slow increase of current. Therefore, we measured the current amplitude at the end of the solution exchange when the current amplitude reaches a steady-state maximal value. […]

The target of test [2] is T1, TMEM16A (ANO1). Nature of the test: Activation of ANO1 current by divalent cations, excised inside-out patch with fast solution exchange. It is filed as cell-based.
Text: as §1
(§2) All chemicals were reagent grade. Regular salts (such as NaCl, NaOH, CaCl2, SrCl2, BaCl2, MgCl2 or sodium salts of various anions) were purchased from Fisher Chemicals (Fair Lawn, NJ), J. T. Baker (Phillipsburg, NJ) or Sigma Chemicals Co. (St. Louis, MO). EGTA, HEPES, and NFA were from Sigma Chemicals Co. Excised inside-out patch-clamp recordings were performed throughout the study. The extracellular (pipette) solution in all experiments contained: 140 mM NaCl, 10 mM HEPES, 0.1 mM EGTA, pH = 7.4. The regular intracellular solution contained 10 mM HEPES and 140 mM sodium salt of Cl^− or other anions. Various concentrations of divalent cations were made by adding certain total concentrations of divalent cations (Cl^− salts) into the solution containing a defined concentration of EGTA. We defined the pipette solution as the “zero-Ca^2+” solution. A solution containing a saturating [Ca^2+] was made by adding 0.12 mM total [Ca^2+] into the aforementioned zero-Ca^2+ solution, resulting in a solution containing ∼20 µM free [Ca^2+]. For making non-saturating [Ca^2+] solutions, the solutions included 1 mM EGTA. To make solutions containing Sr^2+ and Ba^2+, only 0.1 mM EGTA was used. The pH of all solutions was adjusted to 7.4.
Because of weak Mg^2+-EGTA binding, we referred the total [Mg^2+] as the free [Mg^2+]. The free [Ca^2+], [Sr^2+], and [Ba^2+] were calculated using the MaxChelator program (Ver1.2) kindly provided by Chris Patton from the Stanford University. This program was developed based on the binding constants available in the National Institute of Standard and Technology (NIST) between EGTA and these three divalent cations. Table S1, Table S2, and Table S3 list respectively the calculated free [Ca^2+], [Sr^2+], and [Ba^2+] used in this study. All added divalent cations were Cl^− salts. […] For example, in a solution containing 5 mM, 10 mM or 30 mM MgCl2, only 130 mM, 120 mM or 80 mM of NaCl, respectively, were added to the solution.
The patch-clamp recording pipettes were fabricated from borosilicate glass capillaries (World Precision Instruments) using PP830 electrode puller (Narishige International). When filled with the pipette solution, the electrode resistance was ∼1.5–3 MΩ. The experiments were carried out at room temperature (20–23°C) using the Axopatch 200B amplifier controlled by the Digidata I/O converter and the pClamp9 software (Axon Instruments/Molecular Devices).
Solution exchange was achieved using the SF-77 solution exchanger (Warner Instruments). After the excised inside-out patch mode was established, the tip of the patch pipette was positioned at the exit of the solution-delivery pipes of the SF-77 solution exchanger. The switch of solution pipes was controlled by a digital signal delivered from the Digidata 1320 digitizing board. […]

In test [3] the target is T1, TMEM16A (ANO1). The experiment in a line: NFA inhibition of ANO1 current, intracellular application to inside-out patch. It is filed as cell-based.
The target in test [4] is T1, TMEM16A (ANO1). The test is described as above. It is filed as cell-based.
Text: as §1, §2
The inhibition of ANO1 by intracellular NFA was achieved by directly applying NFA to the intracellular side of the membrane patch using fast-solution exchange. Except where indicated, the ANO1 current was induced by saturating [Ca^2+] followed by the application of various [NFA] in the solution containing the same [Ca^2+]. The steady-state current (I) at the end of NFA application was divided by the current in the absence of NFA (I0) before and after the drug application to obtain the percentage of current remained in the presence of NFA.
For dose-response inhibition by NFA, the current (I) measured at the end of the NFA application was normalized to the current amplitude in the absence of NFA (I0). The ratio I/I0 was then plotted against [NFA], and the concentration-dependent inhibition curve was fitted to a Langmuir function (eq. 2), I/I0 = 1/(1+ [NFA]/K1/2), where K1/2 is the half-inhibition [NFA].
For comparing two treatments that might differentially affect the apparent affinity of the NFA inhibition (for example, Fig. 8 C & D), the summation of the residual error (namely, the residual sum of squares of the error) from the curve fitting of each treatment was compared to the residual error from the curve fitting of the pooled data. If the former was statistically smaller than the latter using F test, the two regression curves would be considered different. The statistically significant level (α) was set at 0.05.
This is another data set of the same source.

Another test relates to CaCC of Xenopus oocytes. On the set-up: method as in PMID 11279188. The settings on record: cited from earlier work.
In the next test the test system is TMEM16A. The settings on record: cited from earlier work.
Where [5] appears, read: Schild plot from K1/2,Ca in 0, 2, 5 and 10 mM Mg^2+.

As to `[Mg+2]` [Mg^2+], the IC50 on TMEM16A (ANO1) [1] (ANO1 current induced by 0.666 µM free Ca^2+, fit to eq. 2, read-out: apparent half-inhibition concentration) is 5400 µM. At TMEM16A (ANO1) [1] (setting [5]), the “[Mg^2+] that increases K1/2,Ca 2-fold (Schild plot)” value is given as approximately 2.5 mM and the “pMg at crossing of the horizontal axis of the Schild plot” value is reported as approximately 2.6. Further, on TMEM16A (ANO1) [1] (saturating [Ca^2+], 5 mM Mg^2+ (Fig. 4 C)), the “Mg^2+ inhibition of ANO1 current activated by saturating [Ca^2+]” value is listed as “not observed; also recorded: not inhibited”. Further, at TMEM16A (ANO1) [2] (up to 30 mM [Mg^2+], intracellular side), the “ANO1 activation by Mg^2+” value is on record as “no ANO1 activation was detected; also recorded: unable to detect ANO1 current”.

Take `O=C(O)c1cccnc1Nc1cccc(C(F)(F)F)c1` [NFA, niflumic acid]: the IC50 on TMEM16A (ANO1) [3] (symmetrical 4 mM NaCl (136 mM Na-Glutamate added), −40 mV, read-out: K1/2 of NFA inhibition) worked out at 7.9 µM; on TMEM16A (ANO1) [4] (140 mM intracellular NaBr, pipette 140 mM Cl^−, read-out: K1/2 of NFA inhibition), 39.2 ± 1.1 µM; on TMEM16A (ANO1) [4] (140 mM intracellular NaCl, pipette 140 mM Cl^−, read-out: K1/2 of NFA inhibition), 17.9 ± 1.1 µM; on TMEM16A (ANO1) [4] (140 mM intracellular NaI, pipette 140 mM Cl^−, read-out: K1/2 of NFA inhibition) it was 85.5 ± 3.6 µM; at TMEM16A (ANO1) [4] (140 mM intracellular NaNO3, pipette 140 mM Cl^−, read-out: K1/2 of NFA inhibition), 54.8 ± 3.4 µM; at TMEM16A (ANO1) [4] (140 mM intracellular NaSCN, pipette 140 mM Cl^−, read-out: K1/2 of NFA inhibition), 189 ± 7.4 µM. The IC50 is 22.6 µM on TMEM16A (ANO1) [4] (current activated by 404 µM [Ba^2+], Vm = −20 mV, read-out: K1/2 of NFA inhibition); 18 to 20 µM at TMEM16A (ANO1) [4] (current induced by 20 µM Ca^2+, −40, −20, +20, +40 mV, read-out: half-blocking concentration (K1/2) of NFA); 18.4 µM at TMEM16A (ANO1) [4] (symmetrical 140 mM NaCl, −40 mV, read-out: K1/2 of NFA inhibition). Also, at TMEM16A (ANO1) [3] (symmetrical solutions), the “increase of apparent affinity of NFA inhibition in 4 mM [Cl^−] compared with 140 mM [Cl^−]” value was “more than 2 fold”. For the same molecule, the “effect of NFA on sensitivity of ANO1 to Ca^2+ activation” value at TMEM16A (ANO1) [4] (20 µM NFA, current induced by 666 nM Ca^2+ at ±40 mV) was “not reduced”. In addition, the “voltage dependence of K1/2 of NFA inhibition” value on TMEM16A (ANO1) [4] (between −40 mV and +40 mV) was “not voltage dependent”. In the test with CaCC of Xenopus oocytes, the “sideness of the block” value is “from intracellular and extracellular sides with similar affinities”.

With `[Ca+2]` [Ca^2+], the EC50 was 0.063 µM in the test with TMEM16A (+80 mV, read-out: K1/2,Ca); less than 0.1 µM in the test with TMEM16A (−60 mV, lower end of literature range, read-out: half-effective concentration of Ca^2+ (K1/2,Ca)); more than 2 µM in the test with TMEM16A (−60 mV, upper end of literature range, read-out: half-effective concentration of Ca^2+ (K1/2,Ca)); 0.466 µM at TMEM16A (ANO1) [2] (+40 mV, fit to Hill equation (eq. 1), normalized to Is induced by 20 µM free Ca^2+, read-out: half-activation [Ca^2+] (K1/2,Ca)); approximately 0.5 µM on TMEM16A (ANO1) [2] (values covering +40 and −40 mV, read-out: K1/2 of ANO1 activation). Moreover, the “difference of K1/2,Ca between +40 mV and −40 mV” value on TMEM16A (ANO1) [2] was found to be 100 nM. In addition, the “fraction of saturated current activated” value on TMEM16A (ANO1) [2] (666 nM [Ca^2+], ±40 mV, in the presence or absence of 20 µM NFA) is listed as approximately 90%. Also, at TMEM16A (ANO1) [2] (Is induced by 20 µM Ca^2+, ±40 mV), the “maximal ANO1 current activated by saturating divalent cation compared with Is induced by saturating [Ca^2+]” value is recorded as “activated the channel to the same maximal current level”. For the same molecule, the “Hill coefficient (n) of dose-response activation curve” value at TMEM16A (ANO1) [2] (values covering +40 and −40 mV) was approximately 4.
